Source: the supplement of paper PMC10307832

Legend:
Assay in all cases: relative viability (nuclei count vs DMSO), 5 days (fraction); higher = more cells survive
[1] = compound: COc1cc2nc(N3CCCN(C)CC3)nc(NC3CCN(Cc4ccccc4)CC3)c2cc1OC + Cc1nc(NC(=O)N2CCC[C@H]2C(N)=O)sc1-c1ccnc(C(C)(C)C(F)(F)F)c1 [Alpelisib] (partner 2 µM)
Method in brief: (§1)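 One day after seeding in 1536-well plates, lung cancer cell lines were dosed by pin tool. Dosing was either single-drug or a fixed anchor-drug dose plus five library-drug doses (not always all listed) in √10 steps. After 5 days, nuclei were stained in one fix-and-stain step and counted on 4× images, and relative viability is the nuclei count of treated wells over that of vehicle wells, given as the median of duplicate plates.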

[2] = compound: COc1cc2nc(N3CCCN(C)CC3)nc(NC3CCN(Cc4ccccc4)CC3)c2cc1OC + Cc1nc(Nc2ncc(C(=O)Nc3c(C)cccc3Cl)s2)cc(N2CCN(CCO)CC2)n1 [Dasatinib] (partner 0.075 µM)
Method in brief: as §1

AZD6482 + Foretinib = compound: Cc1cc([C@@H](C)Nc2ccccc2C(=O)O)c2nc(N3CCOCC3)cc(=O)n2c1 [AZD6482] + COc1cc2c(Oc3ccc(NC(=O)C4(C(=O)Nc5ccc(F)cc5)CC4)cc3F)ccnc2cc1OCCCN1CCOCC1 [Foretinib] (partner 0.25 µM)
Method in brief: as §1

AZD6482 + Crizotinib = compound: Cc1cc([C@@H](C)Nc2ccccc2C(=O)O)c2nc(N3CCOCC3)cc(=O)n2c1 [AZD6482] + C[C@@H](Oc1cc(-c2cnn(C3CCNCC3)c2)cnc1N)c1c(Cl)ccc(F)c1Cl [Crizotinib] (partner 1 µM)
Method in brief: as §1

Cell Line	relative viability ([1]; first compound 0.2 µM)	relative viability ([1]; first compound 0.6325 µM)	relative viability ([1]; first compound 2 µM)	relative viability ([1]; first compound 6.325 µM)	relative viability ([2]; first compound 0.2 µM)	relative viability ([2]; first compound 0.6325 µM)	relative viability ([2]; first compound 2 µM)	relative viability ([2]; first compound 6.325 µM)	relative viability (AZD6482 + Foretinib; first compound 0.08 µM)	relative viability (AZD6482 + Foretinib; first compound 0.253 µM)	relative viability (AZD6482 + Foretinib; first compound 0.8 µM)	relative viability (AZD6482 + Foretinib; first compound 2.53 µM)	relative viability (AZD6482 + Foretinib; first compound 8 µM)	relative viability (AZD6482 + Crizotinib; first compound 0.08 µM)	relative viability (AZD6482 + Crizotinib; first compound 0.253 µM)	relative viability (AZD6482 + Crizotinib; first compound 0.8 µM)	relative viability (AZD6482 + Crizotinib; first compound 2.53 µM)	relative viability (AZD6482 + Crizotinib; first compound 8 µM)
HCC-366	0.519	0.558	0.468	0.283	0.697	0.599	0.504	0.571	0.938	0.897	0.936	0.759	0.447	0.304	0.447	0.395	0.453	0.472
HCC-827	0.906	0.922	0.952	0.891	0.398	0.237	0.258	0.379	0.986	0.878	0.945	0.678	0.499	0.894	0.958	0.936	0.885	0.63
HOP-62	0.878	0.932	0.829	0.877	0.748	0.62	0.711	0.65	1.12	1.15	1.23	0.94	1.02	1.07	0.897	0.609	0.782	0.751
IA-LM	0.688	0.823	1.02	1.01	–	–	–	–	1.18	1.2	1.52	–	1.09	0.968	1.06	1.01	–	1.08
LC-2-ad	0.883	0.89	0.943	0.896	0.493	0.618	0.804	0.65	0.902	0.939	0.878	0.714	0.787	0.434	–	0.476	0.404	0.367
LCLC-97TM1	0.241	–	0.243	0.258	0.857	0.701	0.877	0.915	0.854	0.778	0.823	0.595	0.596	0.479	0.327	0.298	0.294	0.234
LCLC-103H	1.04	0.648	0.939	0.994	0.394	0.344	0.532	0.479	0.603	0.55	0.56	0.379	0.33	0.909	0.994	0.911	0.847	0.699
LK-2	1.02	1.05	1.26	1.01	0.35	0.341	0.261	0.324	1.3	1.08	1.22	0.822	0.948	0.24	–	0.263	0.244	0.239
LOU-NH91	0.736	0.755	0.588	0.642	0.525	0.686	0.439	0.59	0.826	0.846	0.993	0.603	0.677	0.709	0.725	0.74	0.564	0.563
